# From patent US4450269A, “Mono-5-substituted-3-chloro-4H-1,2,6-thiadiazin-4-one antifungal agents” (FMC Corporation, priority 1980, dated 1984)
# Structures can show the parent of a compound that is named as a salt.
# System: Rhizoctonia solani
# Assay: Mycelial growth test
# Format: cell-based
# Details: RS; for Percent Fungus Growth Inhibition: 72 hours; for inhibition at 5 ppm / inhibition at 10 ppm / inhibition at 20 ppm / inhibition at 40 ppm: Rhizoctonia solani, 72 h, read-out: Percent Fungus Growth Inhibition
# Text: | RS = Rhizoctonia solani
compound,measurement,setting,value
"3-chloro-5-(bromophenoxy)-4H-1,2,6-thiadiazin-4-one [Compound 33]",Percent Fungus Growth Inhibition,5 ppm,31%
same,Percent Fungus Growth Inhibition,10 ppm,42%
same,Percent Fungus Growth Inhibition,20 ppm,64%
same,Percent Fungus Growth Inhibition,40 ppm,100%
"O=c1c(Cl)nsnc1Oc1ccccc1 [Compound 2, 3-chloro-5-phenoxy-4H--1,2,6-thiadiazin-4-one]",inhibition at 5 ppm,5 ppm,0%
same,inhibition at 10 ppm,10 ppm,42%
same,inhibition at 20 ppm,20 ppm,100%
same,inhibition at 40 ppm,40 ppm,78%
"Cc1ccc(Oc2nsnc(Cl)c2=O)cc1 [Compound 3, 3-chloro-5-(4-methylphenoxy)-4H--1,2,6-thiadiazin-4-one]",inhibition at 5 ppm,5 ppm,0%
same,inhibition at 10 ppm,10 ppm,20%
same,inhibition at 20 ppm,20 ppm,56%
same,inhibition at 40 ppm,40 ppm,100%
"CC(C)(C)c1ccc(Oc2nsnc(Cl)c2=O)cc1 [Compound 4, 3-chloro-5-(4-tert-butylphnoxy)-4H--1,2,6-thiadiazin-4-one]",inhibition at 5 ppm,5 ppm,0%
same,inhibition at 10 ppm,10 ppm,0%
same,inhibition at 20 ppm,20 ppm,0%
same,inhibition at 40 ppm,40 ppm,0%
"COc1ccc(Oc2nsnc(Cl)c2=O)cc1 [Compound 5, 3-chloro-5-(4-methoxyphenoxy)4H--1,2,6-thiadiazin-4-one]",inhibition at 5 ppm,5 ppm,0%
same,inhibition at 10 ppm,10 ppm,0%
same,inhibition at 20 ppm,20 ppm,38%
same,inhibition at 40 ppm,40 ppm,64%
"CCCCOc1ccc(Oc2nsnc(Cl)c2=O)cc1 [Compound 6, 3-chloro-5-(4-n-butoxyphenoxy)-4H--1,2,6-thiadiazin-4-one]",inhibition at 5 ppm,5 ppm,0%
same,inhibition at 10 ppm,10 ppm,0%
same,inhibition at 20 ppm,20 ppm,0%
same,inhibition at 40 ppm,40 ppm,20%
"CCOC(=O)c1ccc(Oc2nsnc(Cl)c2=O)cc1 [Compound 7, 3-chloro-5-(4-ethoxycarbonylphenoxy)-4H--1,2,6-thiadiazin-4-one]",inhibition at 5 ppm,5 ppm,7%
same,inhibition at 10 ppm,10 ppm,33%
same,inhibition at 20 ppm,20 ppm,53%
same,inhibition at 40 ppm,40 ppm,76%
"CC(=O)Nc1ccc(Oc2nsnc(Cl)c2=O)cc1 [Compound 8, 5-(4-acetylaminophenoxy)-3-chloro-4H--1,2,6-thiadiazin-4-one]",inhibition at 5 ppm,5 ppm,0%
same,inhibition at 10 ppm,10 ppm,0%
same,inhibition at 20 ppm,20 ppm,7%
same,inhibition at 40 ppm,40 ppm,42%
"O=c1c(Cl)nsnc1Oc1ccc([N+](=O)[O-])cc1 [Compound 9, 3-chloro-5-(4-nitrophenoxy)-4H--1,2,6-thiadiazin-4-one]",inhibition at 5 ppm,5 ppm,13%
same,inhibition at 10 ppm,10 ppm,42%
same,inhibition at 20 ppm,20 ppm,69%
same,inhibition at 40 ppm,40 ppm,78%
"N#Cc1ccc(Oc2nsnc(Cl)c2=O)cc1 [Compound 10, 3-chloro-5-(4-cyanophenoxy)-4H--1,2,6-thiadiazin-4-one]",inhibition at 5 ppm,5 ppm,9%
same,inhibition at 10 ppm,10 ppm,13%
same,inhibition at 20 ppm,20 ppm,100%
same,inhibition at 40 ppm,40 ppm,100%
"O=c1c(Cl)nsnc1Oc1ccc(F)cc1 [Compound 11, 3-chloro-5-(4-fluorophenoxy)-4H--1,2,6-thiadiazin-4-one]",inhibition at 5 ppm,5 ppm,0%
same,inhibition at 10 ppm,10 ppm,38%
same,inhibition at 20 ppm,20 ppm,76%
same,inhibition at 40 ppm,40 ppm,91%
"O=c1c(Cl)nsnc1Oc1ccc(Cl)cc1 [Compound 12, 3-chloro-5-(4-chlorophenoxy)-4H--1,2,6-thiadiazin-4-one]",inhibition at 5 ppm,5 ppm,20%
same,inhibition at 10 ppm,10 ppm,58%
same,inhibition at 20 ppm,20 ppm,64%
same,inhibition at 40 ppm,40 ppm,100%
"O=c1c(Cl)nsnc1Oc1cccc(Cl)c1 [Compound 13, 3-chloro-5-(3-chlorophenoxy)-4H--1,2,6-thiadiazin-4-one]",inhibition at 5 ppm,5 ppm,24%
same,inhibition at 10 ppm,10 ppm,53%
same,inhibition at 20 ppm,20 ppm,69%
same,inhibition at 40 ppm,40 ppm,76%
"O=c1c(Cl)nsnc1Oc1ccccc1Cl [Compound 14, 3-chloro-5-(2-chlorophenoxy)-4H--1,2,6-thiadiazin-4-one]",inhibition at 5 ppm,5 ppm,53%
same,inhibition at 10 ppm,10 ppm,56%
same,inhibition at 20 ppm,20 ppm,76%
same,inhibition at 40 ppm,40 ppm,91%
"O=c1c(Cl)nsnc1Oc1ccc(Br)cc1 [Compound 15, 3-chloro-5-(4-bromophenoxy)-4H--1,2,6-thiadiazin-4-one]",inhibition at 5 ppm,5 ppm,13%
same,inhibition at 10 ppm,10 ppm,38%
same,inhibition at 20 ppm,20 ppm,38%
same,inhibition at 40 ppm,40 ppm,53%
"O=c1c(Cl)nsnc1Oc1ccc(Cl)c(Cl)c1 [Compound 16, 3-chloro-5-(3,4-dichlorophenoxy)-4H--1,2,6-thiadiazin-4-one]",inhibition at 5 ppm,5 ppm,29%
same,inhibition at 10 ppm,10 ppm,31%
same,inhibition at 20 ppm,20 ppm,31%
same,inhibition at 40 ppm,40 ppm,69%
"O=c1c(Cl)nsnc1Oc1ccc(Cl)cc1Cl [Compound 17, 3-chloro-5-(2,4-dichlorophenoxy)-4H--1,2,6-thiadiazin-4-one]",inhibition at 5 ppm,5 ppm,40%
same,inhibition at 10 ppm,10 ppm,53%
same,inhibition at 20 ppm,20 ppm,76%
same,inhibition at 40 ppm,40 ppm,76%
"O=c1c(Cl)nsnc1Oc1c(Cl)cccc1Cl [Compound 18, 3-chloro-5-(2,6-dichlorophenoxy)-4H--1,2,6-thiadiazin-4-one]",inhibition at 5 ppm,5 ppm,42%
same,inhibition at 10 ppm,10 ppm,56%
same,inhibition at 20 ppm,20 ppm,76%
same,inhibition at 40 ppm,40 ppm,87%
"O=c1c(Cl)nsnc1Oc1cccc(Cl)c1Cl [Compound 19, 3-chloro-5-(2,3-dichlorophenoxy)-4H--1,2,6-thiadiazin-4-one]",inhibition at 5 ppm,5 ppm,29%
same,inhibition at 10 ppm,10 ppm,47%
same,inhibition at 20 ppm,20 ppm,69%
same,inhibition at 40 ppm,40 ppm,82%
"O=c1c(Cl)nsnc1Oc1cc(Cl)cc(Cl)c1 [Compound 20, 3-chloro-5-(3,5-dichlorophenoxy)-4H--1,2,6-thiadiazin-4-one]",inhibition at 5 ppm,5 ppm,51%
same,inhibition at 10 ppm,10 ppm,58%
same,inhibition at 20 ppm,20 ppm,76%
same,inhibition at 40 ppm,40 ppm,78%
"Cc1cccc(Oc2nsnc(Cl)c2=O)c1 [Compound 21, 3-chloro-5-(3-methylphenoxy)-4H--1,2,6-thiadiazin-4-one]",inhibition at 5 ppm,5 ppm,53%
same,inhibition at 10 ppm,10 ppm,64%
same,inhibition at 20 ppm,20 ppm,87%
same,inhibition at 40 ppm,40 ppm,100%
"Cc1ccccc1Oc1nsnc(Cl)c1=O [Compound 22, 3-chloro-5-(2-methylphenoxy)-4H--1,2,6-thiadiazin-4-one]",inhibition at 5 ppm,5 ppm,42%
same,inhibition at 10 ppm,10 ppm,62%
same,inhibition at 20 ppm,20 ppm,91%
same,inhibition at 40 ppm,40 ppm,100%
"Cc1ccc(Oc2nsnc(Cl)c2=O)c(C)c1 [Compound 23, 3-chloro-5-(2,4-dimethylphenoxy)-4H--1,2,6-thiadiazin-4-one]",inhibition at 5 ppm,5 ppm,20%
same,inhibition at 10 ppm,10 ppm,53%
same,inhibition at 20 ppm,20 ppm,73%
same,inhibition at 40 ppm,40 ppm,78%
"Cc1cccc(C)c1Oc1nsnc(Cl)c1=O [Compound 24, 3-chloro-5-(2,6-dimethylphenoxy)-4H--1,2,6-thiadiazin-4-one]",inhibition at 5 ppm,5 ppm,20%
same,inhibition at 10 ppm,10 ppm,64%
same,inhibition at 20 ppm,20 ppm,82%
same,inhibition at 40 ppm,40 ppm,100%
"Cc1cc(C)cc(Oc2nsnc(Cl)c2=O)c1 [Compound 25, 3-chloro-5-(3,5-dimethylphenoxy)-4H--1,2,6-thiadiazin-4-one]",inhibition at 5 ppm,5 ppm,20%
same,inhibition at 10 ppm,10 ppm,64%
same,inhibition at 20 ppm,20 ppm,80%
same,inhibition at 40 ppm,40 ppm,78%
"Nc1ccc(Oc2nsnc(Cl)c2=O)cc1 [Compound 26, 5-(4-aminophenoxy)-3-chloro-4H--1,2,6-thiadiazin-4-one]",Percent Fungus Growth Inhibition,10 ppm,53%
same,inhibition at 5 ppm,5 ppm,0%
same,inhibition at 20 ppm,20 ppm,42%
same,inhibition at 40 ppm,40 ppm,76%
"Nc1ccc(Oc2nsnc(Cl)c2=O)cc1 [Compound 27, 5-(4-aminophenoxy)-3-chloro-4H--1,2,6-thiadiazine-4-one hydrochloride]",Percent Fungus Growth Inhibition,"10 ppm, hydrochloride",31%
same,Percent Fungus Growth Inhibition,"20 ppm, hydrochloride",24%
same,Percent Fungus Growth Inhibition,"40 ppm, hydrochloride",64%
"CNC(=O)Nc1ccc(Oc2nsnc(Cl)c2=O)cc1 [Compound 28, 3-chloro-5-[4-(3-methylureido)-phenoxy]-4H--1,2,6-thiadiazin-4-one]",inhibition at 5 ppm,5 ppm,20%
same,inhibition at 10 ppm,10 ppm,47%
same,inhibition at 20 ppm,20 ppm,24%
same,inhibition at 40 ppm,40 ppm,47%
"O=C(Nc1ccccc1)Nc1ccc(Oc2nsnc(Cl)c2=O)cc1 [Compound 29, 3-chloro-5-[4-(3-phenylureido)-phenoxy]-4H--1,2,6-thiadiazin-4-one]",inhibition at 5 ppm,5 ppm,0%
same,inhibition at 10 ppm,10 ppm,31%
same,inhibition at 20 ppm,20 ppm,0%
same,inhibition at 40 ppm,40 ppm,29%
"O=c1c(Cl)nsnc1Oc1c(Cl)cc(Cl)cc1Cl [Compound 30, 3-chloro-5-(2,4,6-trichlorophenoxy)-4H--1,2,6-thiadiazin-4-one]",inhibition at 5 ppm,5 ppm,42%
same,inhibition at 10 ppm,10 ppm,62%
same,inhibition at 20 ppm,20 ppm,69%
same,inhibition at 40 ppm,40 ppm,80%
"O=c1c(Cl)nsnc1Oc1c(Cl)c(Cl)c(Cl)c(Cl)c1Cl [Compound 31, 3-chloro-5-(pentachlorophenoxy)-4H--1,2,6-thiadiazine-4-one]",inhibition at 5 ppm,5 ppm,53%
same,inhibition at 10 ppm,10 ppm,69%
same,inhibition at 20 ppm,20 ppm,73%
same,inhibition at 40 ppm,40 ppm,76%
"O=c1c(Cl)nsnc1Oc1cccc2ccccc12 [Compound 32, 3-chloro-5(1-naphthoxy)-4H-1,2,6-thiadiazin-4-one]",inhibition at 5 ppm,5 ppm,76%
same,inhibition at 10 ppm,10 ppm,42%
same,inhibition at 20 ppm,20 ppm,69%
same,inhibition at 40 ppm,40 ppm,73%
"O=c1c(Cl)nsnc1Oc1ccccc1Br [Compound 34, 3-chloro-5-(2-bromophenoxy)-4H-1,2,6,-thiadiazin-4-one]",inhibition at 5 ppm,5 ppm,24%
same,inhibition at 10 ppm,10 ppm,64%
same,inhibition at 20 ppm,20 ppm,76%
same,inhibition at 40 ppm,40 ppm,100%
"O=c1c(Cl)nsnc1Oc1ccc(O)cc1 [Compound 35, 3-chloro-5-(4-hydroxyphenoxy)-4H-1,2,6-thiadiazin-4-one]",inhibition at 5 ppm,5 ppm,0%
same,inhibition at 10 ppm,10 ppm,7%
same,inhibition at 20 ppm,20 ppm,44%
same,inhibition at 40 ppm,40 ppm,76%
"O=C(Nc1ccccc1)Oc1ccc(Oc2nsnc(Cl)c2=O)cc1 [Compound 37, 3-chloro-5-[4-(phenylaminocarbonyloxy)phenoxy]-4H-1,2,6,-thiadiazin-4-one]",inhibition at 5 ppm,5 ppm,11%
same,inhibition at 10 ppm,10 ppm,42%
same,inhibition at 20 ppm,20 ppm,31%
same,inhibition at 40 ppm,40 ppm,51%
"O=C(OCc1ccccc1)Oc1ccc(Oc2nsnc(Cl)c2=O)cc1 [Compound 38, 3-chloro-5-[4-(phenylmethoxycarbonyloxy)phenoxyl]-4H-1,2,6-thiadiazin-4-one]",inhibition at 5 ppm,5 ppm,0%
same,inhibition at 10 ppm,10 ppm,0%
same,inhibition at 20 ppm,20 ppm,7%
same,inhibition at 40 ppm,40 ppm,33%
"C[S+]([O-])c1ccc(Oc2nsnc(Cl)c2=O)cc1 (centres unmarked) [Compound 40, 3-chloro-5-[(4-methylsulfinyl)phenoxy]-4H-1,2,6,-thiadiazin-4-one]",inhibition at 5 ppm,5 ppm,0%
same,inhibition at 10 ppm,10 ppm,0%
same,inhibition at 20 ppm,20 ppm,24%
same,inhibition at 40 ppm,40 ppm,53%
"CC(=O)Nc1cccc(Oc2nsnc(Cl)c2=O)c1 [Compound 42, 3-[(3-N--acetylamino)-phenoxy]-5-chloro-4H--1,2,6-thiadiazin-4-one]",inhibition at 5 ppm,5 ppm,0%
same,inhibition at 10 ppm,10 ppm,4%
same,inhibition at 20 ppm,20 ppm,31%
same,inhibition at 40 ppm,40 ppm,67%
"CC(=O)Nc1ccccc1Oc1nsnc(Cl)c1=O [Compound 43, 3-[(2-acetylamino)-phenoxy]-5-chloro-4H--1,2,6-thiadiazin-4-one]",inhibition at 5 ppm,5 ppm,0%
same,inhibition at 10 ppm,10 ppm,0%
same,inhibition at 20 ppm,20 ppm,11%
same,inhibition at 40 ppm,40 ppm,24%
